According to US20110034528A1, “Elansolids, Novel Natural Metabolites of Flexibacter and Antibiotically Active Derivatives Thereof” (priority 2008, published 2011):
≈ marks a conversion by molar mass, not a printed value.

How the values were obtained:
[1] = test system: Micrococcus luteus; assay: Minimum inhibitory concentration (MIC) determination; assay type: cell-based
Description: (§1) The determination of minimum inhibitory concentrations was performed as described in J. Antimicrob. Chemother. 2001;48 Suppl 1:5-16.

[2] = test system: S. aureus MRS3 (clinical isolate of a multiresistant S. aureus); assay: as above; assay type: cell-based; conditions: Staphylococcus aureus
Description: as §1

[3] = test system: gram-positive bacteria; assay: Elansolid C1: antibiotic spectrum against gram positive bacteria; assay type: cell-based
[4] = test system: Chromobacterium violaceum; assay: Minimum inhibitory concentration (MIC) determination; assay type: cell-based
Description: as §1

[5] = test system: Corynebact. fascians; assay: as above; assay type: cell-based
Description: as §1

[6] = test system: E. faecalis 25912; assay: as above; assay type: cell-based; conditions: Enterococcus faecalis
Description: as §1

[7] = test system: Mycobacterium lacticola; assay: as above; assay type: cell-based
Description: as §1

[8] = test system: S. aureus 29213; assay: as above; assay type: cell-based; conditions: Staphylococcus aureus
Description: as §1

[9] = Transformation of Elansolid A2 in solution; assay type: physicochemical; conditions: in solution (especially in DMSO)

Row | Structure (SMILES) | MIC [1] [µg/mL] | MIC [2] [µg/mL] | Inhibition zone ([3]; Arthrobacter simplex) [mm] | Inhibition zone ([3]; Bacillus polymyxa) [mm] | Inhibition zone ([3]; Bacillus thuringiensis) [mm] | Inhibition zone ([3]; Brevibact. ammoniagenes) [mm] | Inhibition zone ([3]; Corynebact. fascians) [mm] | Inhibition zone ([3]; Micrococcus luteus) [mm] | Inhibition zone ([3]; Mycobact. chitae) [mm] | Inhibition zone ([3]; Nocardia flava) [mm] | Inhibition zone ([3]; Staph. aureus) [mm] | Inhibition zone ([3]; Streptococcus faecalis) [mm] | activity against selected gram-positive bacteria ([3]; selected gram-positive bacteria) | MIC [4] [µg/mL] | MIC [5] [µg/mL] | MIC [6] [µg/mL] | MIC [7] [µg/mL] | MIC [8] [µg/mL] | transformation in solution [9]
1 | CC1=CC2C(C(C(Nc3ccccc3C(=O)O)c3ccc(O)cc3)C1\C=C/C=C/C=C\C(O)C(C)C(O)C/C=C(C)/C=C/C(=O)O)C(C)(C)CC2(C)O (stereo not drawn) [Elansolid C1] | 0.4 (≈ 0.551 µM) | 1.7 (≈ 2.34 µM) | 25 | 20 | 17 | 17 | 26 | 27 | 15 | 14 | 11 | 14 | bactericidal activity | – | – | – | – | – | –
2 | CC1=CC2C(C3C1\C=C/C=C/C=C\C(O)C(C)C(O)C/C=C(C)/C=C/C(=O)OC3c1ccc(O)cc1)C(C)(C)CC2(C)O (stereo not drawn) [Elansolid A2] | 0.2 (≈ 0.34 µM) | 0.8 (≈ 1.36 µM) | – | – | – | – | – | – | – | – | – | – | – | 3.3 (≈ 5.6 µM) | 1.6 (≈ 2.72 µM) | 64 (≈ 109 µM) | 3.3 (≈ 5.6 µM) | 4 (≈ 6.79 µM) | transformed into Elansolid A1
